{"source": "ChEMBL document CHEMBL1201862", "about": "“PubChem BioAssay data set” (2004)", "key": {"[1]": {"target": "Galanin receptor type 2 (Homo sapiens, UniProt O43603)", "sequence (O43603 whole entry)": "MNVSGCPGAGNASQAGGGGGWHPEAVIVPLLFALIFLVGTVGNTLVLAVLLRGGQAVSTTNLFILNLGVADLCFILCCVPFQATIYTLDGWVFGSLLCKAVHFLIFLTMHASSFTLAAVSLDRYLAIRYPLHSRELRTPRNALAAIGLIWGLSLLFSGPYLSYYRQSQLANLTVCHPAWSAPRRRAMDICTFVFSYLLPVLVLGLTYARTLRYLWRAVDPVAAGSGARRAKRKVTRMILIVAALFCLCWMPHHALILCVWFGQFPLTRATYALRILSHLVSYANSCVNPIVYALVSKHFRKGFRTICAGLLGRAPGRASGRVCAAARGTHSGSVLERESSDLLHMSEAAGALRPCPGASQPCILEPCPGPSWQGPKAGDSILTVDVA", "assay": "Dose Response cell-based high-throughput screening assay to identify antagonists of galanin receptor 2 (GALR2). [Related pubchem assays: 828, 866 ]", "type": "functional"}, "[2]": {"tested_on": "Streptococcus sp. 'group A'", "assay": "Streptococcus pyogenes SK(-)GAS viability under kanamycin – luminescence, BacTiterGlo, confirmation, counter-screen for streptokinase expression inhibitor project, dose response (AID 1900)", "type": "functional, organism-based"}, "[3]": {"target": "T1, Endoribonuclease toxin MazF (Escherichia coli K-12, UniProt P0AE70)", "T1 sequence (P0AE70 whole entry)": "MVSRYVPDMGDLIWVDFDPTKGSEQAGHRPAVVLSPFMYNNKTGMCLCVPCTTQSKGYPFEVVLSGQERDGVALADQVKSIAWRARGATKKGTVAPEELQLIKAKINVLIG", "assay": "activation of MazEF endoribonuclease cleavage – biochemical, fluorescence, single-stranded RNA substrate, uHTS hits, dose response (AID 588481)", "type": "functional"}, "[4]": {"tested_on": "Streptococcus", "assay": "GAS UMAA2166 growth inhibition – luminescence, BacTiterGlo, counter-screen for streptokinase expression inhibitor project, dose response (AID 1915)", "type": "functional, organism-based"}, "[5]": {"target": "T2, Streptokinase A (Streptococcus pyogenes serotype M1, UniProt P10520)", "T2 sequence (P10520 whole entry)": "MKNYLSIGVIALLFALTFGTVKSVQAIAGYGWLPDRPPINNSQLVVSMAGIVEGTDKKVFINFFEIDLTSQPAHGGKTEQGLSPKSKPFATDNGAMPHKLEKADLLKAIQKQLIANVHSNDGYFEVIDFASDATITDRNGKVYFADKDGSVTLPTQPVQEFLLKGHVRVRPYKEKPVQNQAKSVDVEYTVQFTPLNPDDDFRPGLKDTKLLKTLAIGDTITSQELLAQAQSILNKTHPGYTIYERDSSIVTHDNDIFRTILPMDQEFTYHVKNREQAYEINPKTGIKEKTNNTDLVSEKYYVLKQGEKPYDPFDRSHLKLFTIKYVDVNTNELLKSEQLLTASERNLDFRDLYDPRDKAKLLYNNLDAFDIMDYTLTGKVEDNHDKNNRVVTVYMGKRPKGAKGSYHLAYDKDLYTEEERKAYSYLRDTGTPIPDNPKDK", "assay": "viability-normalized secreted streptokinase activity reduction – plasminogen activation absorbance, OD405, dose response (AID 1914);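 further: secreted streptokinase activity via plasminogen activation per viability signal from cell pellet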", "type": "functional, Streptococcus pyogenes M1 GAS"}, "[6]": {"target": "T1, Endoribonuclease toxin MazF", "assay": "substrate-only fluorescence increase artefacts – biochemical, single-stranded RNase substrate, counter-screen for MazEF activator project, dose response (AID 588502)", "type": "functional"}, "[7]": {"target": "T3, RNA-binding protein pos-1 (Caenorhabditis elegans, UniProt G5EF15)", "T3 sequence (G5EF15 whole entry)": "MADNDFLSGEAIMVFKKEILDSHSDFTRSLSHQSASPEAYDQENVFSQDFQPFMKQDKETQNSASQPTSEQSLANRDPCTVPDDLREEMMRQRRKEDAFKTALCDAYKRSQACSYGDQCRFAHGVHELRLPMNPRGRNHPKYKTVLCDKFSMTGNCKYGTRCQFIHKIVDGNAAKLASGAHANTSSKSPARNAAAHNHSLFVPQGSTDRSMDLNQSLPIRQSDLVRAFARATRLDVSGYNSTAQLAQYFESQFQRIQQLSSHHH", "assay": "disruptors of C. elegans POS-1 RNA interaction – biochemical, fluorescence polarization, dose response (AID 1964);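 further: purified POS-1 fused to maltose binding protein made in E. coli; potency of compounds blocking POS-1 binding to fluorescent RNA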"}, "[8]": {"target": "Lethal factor (Bacillus anthracis, UniProt P15917)", "sequence (P15917 whole entry)": "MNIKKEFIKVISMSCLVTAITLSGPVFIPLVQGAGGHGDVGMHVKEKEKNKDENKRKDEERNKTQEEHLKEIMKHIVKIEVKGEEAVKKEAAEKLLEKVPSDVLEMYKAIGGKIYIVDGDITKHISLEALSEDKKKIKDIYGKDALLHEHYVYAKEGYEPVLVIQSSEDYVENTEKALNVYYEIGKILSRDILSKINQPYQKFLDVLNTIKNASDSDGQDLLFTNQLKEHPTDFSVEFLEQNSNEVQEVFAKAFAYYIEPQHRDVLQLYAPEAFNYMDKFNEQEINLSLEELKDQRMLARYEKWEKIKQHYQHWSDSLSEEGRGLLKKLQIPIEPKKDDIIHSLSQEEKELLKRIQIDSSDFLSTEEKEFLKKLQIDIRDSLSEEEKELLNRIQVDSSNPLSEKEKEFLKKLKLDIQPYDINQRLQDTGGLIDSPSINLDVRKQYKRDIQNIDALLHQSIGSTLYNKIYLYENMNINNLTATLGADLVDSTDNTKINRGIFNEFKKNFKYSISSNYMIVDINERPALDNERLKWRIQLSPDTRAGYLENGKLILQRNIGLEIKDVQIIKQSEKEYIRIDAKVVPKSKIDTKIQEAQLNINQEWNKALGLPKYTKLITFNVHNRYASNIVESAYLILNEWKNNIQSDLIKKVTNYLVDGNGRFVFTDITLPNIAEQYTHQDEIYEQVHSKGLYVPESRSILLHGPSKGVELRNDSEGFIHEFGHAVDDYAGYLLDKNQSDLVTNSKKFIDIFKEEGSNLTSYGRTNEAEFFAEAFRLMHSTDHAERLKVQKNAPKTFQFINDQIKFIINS", "assay": "High-throughput multiplex microsphere dose response for inhibitors of toxin protease, specifically Lethal Factor protease, compounds from Cherry Pick 01.", "type": "functional", "conditions": "read-out: EC50_MICROM"}, "[9]": {"target": "T4, Zinc finger protein mex-5 (Caenorhabditis elegans, UniProt Q9XUB2)", "T4 sequence (Q9XUB2 whole entry)": "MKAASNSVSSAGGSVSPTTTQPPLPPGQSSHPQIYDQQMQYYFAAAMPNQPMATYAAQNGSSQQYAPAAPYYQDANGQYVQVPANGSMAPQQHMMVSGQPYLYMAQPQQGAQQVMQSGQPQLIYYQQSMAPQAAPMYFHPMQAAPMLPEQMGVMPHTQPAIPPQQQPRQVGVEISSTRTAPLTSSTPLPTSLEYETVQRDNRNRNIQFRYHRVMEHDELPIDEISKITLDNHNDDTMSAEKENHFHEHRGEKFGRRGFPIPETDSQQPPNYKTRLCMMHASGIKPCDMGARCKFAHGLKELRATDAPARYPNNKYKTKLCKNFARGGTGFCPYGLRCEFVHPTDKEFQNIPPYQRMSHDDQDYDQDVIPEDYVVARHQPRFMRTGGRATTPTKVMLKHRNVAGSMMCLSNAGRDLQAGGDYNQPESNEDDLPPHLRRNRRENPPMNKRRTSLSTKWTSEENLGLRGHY", "assay": "potency of MEX-5 RNA-binding blockers – biochemical, C. elegans, fluorescence polarization, dose response (AID 1960)"}, "[10]": {"target": "T5, Corticotropin-releasing factor receptor 2/Corticotropin-releasing factor-binding protein (Homo sapiens, UniProt P24387+Q13324)", "T5 sequence (Q13324 whole entry)": "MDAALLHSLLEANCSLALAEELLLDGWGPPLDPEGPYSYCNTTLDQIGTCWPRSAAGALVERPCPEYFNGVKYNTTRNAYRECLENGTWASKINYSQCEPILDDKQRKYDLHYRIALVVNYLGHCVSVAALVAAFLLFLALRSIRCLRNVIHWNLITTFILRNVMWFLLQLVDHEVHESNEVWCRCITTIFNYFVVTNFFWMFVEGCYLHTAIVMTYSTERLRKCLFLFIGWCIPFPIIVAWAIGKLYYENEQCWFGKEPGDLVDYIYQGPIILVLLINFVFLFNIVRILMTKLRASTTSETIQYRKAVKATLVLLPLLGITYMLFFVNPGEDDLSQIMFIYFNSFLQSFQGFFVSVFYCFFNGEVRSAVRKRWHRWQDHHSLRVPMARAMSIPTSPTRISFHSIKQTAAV", "T5 sequence (P24387 whole entry)": "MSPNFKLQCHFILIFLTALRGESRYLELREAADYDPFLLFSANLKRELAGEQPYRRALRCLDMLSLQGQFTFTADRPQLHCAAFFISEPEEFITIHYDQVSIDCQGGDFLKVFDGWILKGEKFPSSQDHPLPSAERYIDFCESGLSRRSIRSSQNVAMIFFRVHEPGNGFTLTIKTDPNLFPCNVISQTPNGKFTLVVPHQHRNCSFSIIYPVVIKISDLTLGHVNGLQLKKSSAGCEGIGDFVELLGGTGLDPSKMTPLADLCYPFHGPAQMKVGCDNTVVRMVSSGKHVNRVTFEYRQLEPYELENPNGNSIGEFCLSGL", "assay": "activators of CRF receptor 2 with binding protein – uHTS hits, confirmation (AID 602473)", "type": "functional", "conditions": "read-out: EC50_Mean"}, "[11]": {"target": "Botulinum neurotoxin type A (Clostridium botulinum (strain Hall / ATCC 3502 / NCTC 13319 / Type A), UniProt P0DPI1)", "sequence (P0DPI1 2-448 limits assumed)": "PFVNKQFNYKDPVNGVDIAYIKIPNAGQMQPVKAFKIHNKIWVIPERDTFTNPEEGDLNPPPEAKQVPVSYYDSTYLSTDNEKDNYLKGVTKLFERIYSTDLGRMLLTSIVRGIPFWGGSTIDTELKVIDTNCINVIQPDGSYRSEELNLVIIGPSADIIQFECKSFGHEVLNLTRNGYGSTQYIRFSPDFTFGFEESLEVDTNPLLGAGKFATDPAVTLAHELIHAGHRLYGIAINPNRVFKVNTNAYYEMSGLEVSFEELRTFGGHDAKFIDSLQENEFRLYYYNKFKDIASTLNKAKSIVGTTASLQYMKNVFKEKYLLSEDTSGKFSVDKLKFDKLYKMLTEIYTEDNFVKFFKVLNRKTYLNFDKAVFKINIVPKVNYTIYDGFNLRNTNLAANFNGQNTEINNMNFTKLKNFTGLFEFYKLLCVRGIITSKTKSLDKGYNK", "assay": "High-throughput multiplex microsphere dose response for inhibitors of toxin protease, specifically Botulinum neurotoxin light chain A protease, compounds from Cherry Pick 01.", "type": "functional", "conditions": "read-out: EC50_MICROM"}, "[12]": {"target": "Botulinum neurotoxin type F (Clostridium botulinum, UniProt P30996)", "sequence (P30996 1-436 limits assumed)": "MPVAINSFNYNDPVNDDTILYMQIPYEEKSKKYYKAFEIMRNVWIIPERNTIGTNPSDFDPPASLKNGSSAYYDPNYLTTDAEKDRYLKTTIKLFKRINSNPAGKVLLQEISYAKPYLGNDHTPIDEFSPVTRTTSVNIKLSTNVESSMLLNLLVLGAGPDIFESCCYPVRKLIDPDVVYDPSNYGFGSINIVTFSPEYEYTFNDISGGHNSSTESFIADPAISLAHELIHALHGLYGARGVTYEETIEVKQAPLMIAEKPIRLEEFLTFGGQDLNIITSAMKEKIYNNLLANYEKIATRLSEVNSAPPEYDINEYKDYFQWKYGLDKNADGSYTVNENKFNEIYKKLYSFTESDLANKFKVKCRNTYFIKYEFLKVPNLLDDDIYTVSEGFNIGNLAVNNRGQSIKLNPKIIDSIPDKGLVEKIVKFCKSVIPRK", "assay": "High-throughput multiplex microsphere dose response for inhibitors of toxin protease, specifically Botulinum neurotoxin light chain F protease, compounds from Cherry Pick 01.", "type": "functional", "conditions": "read-out: EC50_MICROM"}, "[13]": {"assay": "Luminescence Cell-Based Dose Response Follow up to Identify Inhibitors of Platelet Dense Granule Release. [Related pubchem assays (depositor defined):AID1663, AID1678, AID2398]", "type": "functional"}, "[14]": {"assay": "blockers of SFLLRN-triggered platelet ATP secretion – cell-based, human platelets, luminescence, dry powder, dose response (AID 493100)", "type": "functional"}, "[15]": {"target": "DNA topoisomerase (Yersinia pestis, UniProt A0A2S9PM60)", "sequence (A0A2S9PM60 whole entry)": "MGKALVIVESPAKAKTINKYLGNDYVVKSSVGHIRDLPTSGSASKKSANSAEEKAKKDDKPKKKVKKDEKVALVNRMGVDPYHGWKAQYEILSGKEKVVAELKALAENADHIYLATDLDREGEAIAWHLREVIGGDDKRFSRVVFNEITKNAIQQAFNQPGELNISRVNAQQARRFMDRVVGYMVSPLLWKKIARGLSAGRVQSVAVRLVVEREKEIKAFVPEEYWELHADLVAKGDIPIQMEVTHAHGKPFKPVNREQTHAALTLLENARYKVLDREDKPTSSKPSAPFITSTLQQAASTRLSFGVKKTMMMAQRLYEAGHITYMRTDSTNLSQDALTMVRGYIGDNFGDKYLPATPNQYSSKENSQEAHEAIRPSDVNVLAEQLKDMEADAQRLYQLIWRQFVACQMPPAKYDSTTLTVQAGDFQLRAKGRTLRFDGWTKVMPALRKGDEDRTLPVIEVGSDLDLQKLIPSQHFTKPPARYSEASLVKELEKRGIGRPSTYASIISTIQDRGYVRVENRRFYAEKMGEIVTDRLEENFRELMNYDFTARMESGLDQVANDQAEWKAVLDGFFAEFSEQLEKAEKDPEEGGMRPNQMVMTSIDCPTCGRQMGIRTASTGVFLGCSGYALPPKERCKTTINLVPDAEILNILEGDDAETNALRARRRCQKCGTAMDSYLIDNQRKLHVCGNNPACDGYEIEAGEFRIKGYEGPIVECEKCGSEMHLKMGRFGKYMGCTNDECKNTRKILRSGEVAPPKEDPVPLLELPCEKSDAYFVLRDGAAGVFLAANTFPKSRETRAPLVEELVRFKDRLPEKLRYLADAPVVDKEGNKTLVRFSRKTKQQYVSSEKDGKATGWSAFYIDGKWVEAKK", "assay": "Yersinia topoisomerase I cleavage product accumulation – biochemical, cherry-pick, dose response (AID 588525)"}, "[16]": {"tested_on": "Jurkat", "assay": "SAR Analysis of small molecule inhibitors of T-cell specific antigen receptor-induced NF-kB activation in a Jurkat cell line using a luminescence assay - Set 2. [Related pubchem assays (depositor defined):AID435003, AID435012, AID465]", "type": "functional, cell-based", "conditions": "Homo sapiens"}, "[17]": {"tested_on": "HEK293", "assay": "HEK293T cell viability loss, resazurin readout – resazurin fluorescence, cytotoxicity control for NF-kB activator project, SAR follow-up (AID 493251)", "type": "functional, cell-based", "conditions": "Homo sapiens"}, "[18]": {"tested_on": "HEK293", "assay": "SAR Analysis of small molecule inhibitors of T-cell specific antigen receptor-induced NF-kB activation in a HEK-293T cell line using a luminescence assay - Set 2. [Related pubchem assays (depositor defined):AID435003, AID435012, AID489026]", "type": "functional, cell-based", "conditions": "Homo sapiens"}, "[19]": {"assay": "HEK-293T cell viability reduction – luminescence, B-cell screen hits, cytotoxicity control for BCR NF-kB inhibitor project, dose response (AID 489021);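 further: HEK-293T cells carrying an NF-kB luciferase reporter; cells exposed to compound for about 14 hours before viability readout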", "type": "functional, cell-based"}, "[20]": {"assay": "Mcl1-dependent cancer cell viability – HMC-1-8 cells, luminescence, dry powder, selectivity assay for A1 inhibitor project, dose response (AID 504415)", "type": "functional, cell-based", "conditions": "Homo sapiens"}}, "note": "Activity calls are given as the source filed them.", "data": [{"compound": "O=C(Cc1cccs1)Nc1cccc(-c2nc3cc4ccccc4cc3[nH]2)c1", "values": [{"measurement": "IC50", "setting": "[1]", "value": "> 42 µM (not active)"}, {"measurement": "EC50", "setting": "[2]", "value": "4.51 µM (active)"}, {"measurement": "EC50", "setting": "[3]", "value": "> 99 µM (inactive)"}, {"measurement": "EC50", "setting": "[4]", "value": "14.9 µM (active)"}, {"measurement": "EC50", "setting": "[5]", "value": "> 150 µM (not active)"}, {"measurement": "EC50", "setting": "[6]", "value": "> 99 µM (inactive)"}]}, {"compound": "O=c1c(/C=C(\\O)c2ccccc2)nc2ccccc2n1-c1ccccc1", "values": [{"measurement": "EC50", "setting": "[7]", "value": "78.2 µM (inconclusive)"}, {"measurement": "EC50", "setting": "[8]", "value": "20 µM (inactive)"}, {"measurement": "EC50", "setting": "[9]", "value": "6.1 µM (inconclusive)"}, {"measurement": "EC50", "setting": "[10]", "value": "11.6 µM (active)"}, {"measurement": "EC50", "setting": "[11]", "value": "20 µM (inactive)"}, {"measurement": "EC50", "setting": "[12]", "value": "20 µM (inactive)"}]}, {"compound": "CC(=O)Nc1ccc(/C(C)=N/NC(=O)C2CCCC2)cc1", "values": [{"measurement": "EC50", "setting": "[13]", "value": "11.3 µM (active)"}, {"measurement": "AC50", "setting": "[14]", "value": "126 µM (active)"}]}, {"compound": "O=C(C[C@H]1C/C=C\\CC[C@H](Cc2ccc(F)cc2)C(=O)O[C@@H](c2ccccc2)CNC1=O)N[C@@H](CO)Cc1ccccc1", "values": [{"measurement": "AC50", "setting": "[15]", "value": "> 38 µM (inactive)"}]}, {"compound": "CCCCNC(=O)CCc1nc(-c2ccc(C(C)(C)C)cc2)no1", "values": [{"measurement": "IC50", "setting": "[16]", "value": "> 79 µM (inactive)"}, {"measurement": "IC50", "setting": "[17]", "value": "> 80 µM (inactive)"}, {"measurement": "IC50", "setting": "[18]", "value": "14.5 µM (active)"}]}, {"compound": "O=C(Oc1cccc(/C=N/Nc2nc(Nc3ccccc3)nc(N3CCOCC3)n2)c1)c1ccco1", "values": [{"measurement": "EC50", "setting": "[2]", "value": "9.28 µM (active)"}, {"measurement": "EC50", "setting": "[4]", "value": "16 µM (active)"}, {"measurement": "EC50", "setting": "[5]", "value": "> 150 µM (not active)"}, {"measurement": "IC50", "setting": "[19]", "value": "> 80 µM (inactive)"}, {"measurement": "AC50", "setting": "[20]", "value": "56.1 µM (active)"}]}]}
